Assay results from ChEMBL document CHEMBL4665888, “[1,2,4]Triazolo[1,5-a]pyrimidine Phosphodiesterase 2A Inhibitors: Structure and Free-Energy Perturbation-Guided Exploration” (J Med Chem, 2020).
Values after ≈ are worked out from the molar mass of the structure shown.

Columns and labels:
[1] = rat, in vivo, po, 10 mg/kg
Description: Plasma concentration in Long-Evans rat at 10 mg/kg, po

[2] = rat, in vivo, po, 10 mg/kg; remark: listed apart in the source
Description: Drug concentration in Long-Evans rat brain at 10 mg/kg, po

in vivo = conditions: Long-Evans, rat, brain/plasma, po, 10 mg/kg
Description: Ratio of drug concentration in Long-Evans rat brain to plasma at 10 mg/kg, po

physchem = conditions: pH 7.4 buffer
Description: Solubility in pH 7.4 buffer

Cp [1] [ng/mL] | Drug uptake [2] [ng/mL] | Kp (in vivo) | solubility (physchem) [µM] | SMILES
1640 | 788 | 0.5 |  | C[C@@H]1CCN(C(=O)c2ccc3occc3c2)C[C@H]1c1cc(C(F)F)nc2ncnn12
 |  |  | 105 (≈ 44.6 µg/mL) | CS(=O)(=O)n1ccc2cc(C(=O)N3CCCC(c4ccnc5ncnn45)C3)ccc21 (racemic)
